# Source: patent US20250289813A1, “CDK INHIBITORS, PHARMACEUTICAL COMPOSITIONS, AND THERAPEUTIC APPLICATIONS” (ONQUALITY PHARMACEUTICALS CHINA LTD., priority 2022, published 2025)
# Tests used:
# CDK6/cyclin D1 = CDK6/cyclin D1 (Homo sapiens (Human), UniProt Q00534); experiment: CDK6 Caliper Mobility Shift assay; type: biochemical
# Protocol: (§1) A Caliper Mobility Shift assay was used to determine the inhibitory activities of a compound against CDK4/cyclin D1 and CDK6/cyclin D1 in their respective kinase buffers (CDK4: 20 mM HEPES, pH 7.5, and 0.01% Triton X-100; CDK6: 50 mM HEPES, pH 7.5, and 0.0015% BRIJ-35). The CDK4/cyclin D1 and CDK6/cyclin D1 were obtained from PROQINASE and CARNA, respectively. A FAM-labeled peptide was obtained from GL.
# (§2) The compound at predetermined concentrations was pre-incubated with CDK4/cyclin D1 or CDK6/cyclin D1 in a 384-well microplate at room temperature for 10 min. The FAM-labeled peptide and ATP were subsequently added to initiate the kinase reactions. The final enzyme concentrations were 15 nM for CDK4 and 7.5 nM for CDK6. The final ATP concentrations were […] for CDK4 and […] for CDK6. The microplate was allowed to incubate at 28° C. The kinase reactions were stopped by adding a stop buffer (100 mM HEPES, pH 7.5, 0.012% BRIJ-35, 0.2% Coating Reagent 3 (Caliper Life Sciences), and […]). Conversion data were recorded and utilized to calculate the percent inhibition values for each compound and an IC50 value was then determined. The results are summarized in Table 1, where the symbol “***” represents a value no greater than 200 nM, the symbol “**” represents a value greater than 200 nM but no greater than 500 nM, and the symbol “*” represents a value greater than 500 nM.
# [1] = tested on: MCF-7 human breast cancer cells; experiment: CELLTITER-GLO luminescent cell viability assay; type: cell-based; details: MCF7, 192 h, MCF-7 cells, 8 days, read-out: EC50 (Effect on Cell Viability)
# Protocol: A CELLTITER-GLO luminescent cell viability assay was carried out using MCF-7 human breast cancer cells under the normal growth condition. The MCF-7 human breast cancer cells were grown at 37° C. in a 5% CO2 humidified incubator in EMEM, supplemented 10% FBS, 0.01 mg/mL bovine insulin. The cells were seeded at a 3,000 cells/well in a 96-well tissue culture plate. The cells were allowed to adhere overnight in the incubator. A compound (5 μL) in a medium at a predetermined concentration. After the cells was incubated at 37° C. for 8 days, a CELLTITER-GLO detection solution (100 μL) was added. The cells were mixed on an orbital shaker for 5 min and then incubated for additional 10 min. The plate was read with an ENVISION reader. The results are summarized in Table 2, where the symbol “+++” represents a value no greater than 1 μM, the symbol “++” represents a value greater than 1 μM but no greater than 10 μM, and the symbol “+” represents a value greater than 10 μM.
# [2] = tested on: COLO205 human colon cancer cells; experiment: CASPASE-GLO 3/7 apoptosis assay (protection against chemotherapy drug induced cytotoxicity); type: cell-based
# Protocol: The CASPASE-GLO 3/7 apoptosis assay was used to evaluate the protective effect of a compound on the cytotoxicity induced by a chemotherapy drug. The apoptosis assay was carried out using COLO205 human colon cancer cells. The cells were grown at 37° C. in a 5% CO2 humidified incubator in PRIM1640 supplemented with 10% FBS and 0.01 mg/mL bovine insulin. The cells were seeded at 4,000 cells/well in a 96-well plate. After incubated overnight, the cells were pretreated with a compound at predetermined concentrations or a vehicle for 16 h, followed by addition of a chemotherapy drug. After incubated for another 48 h, the CASPASE-GLO 3/7 reagent (100 μL/well) was added. The cells were mixed on an orbital shaker for 10 min and incubated at room temperature for 2 h. The 96-well plate was read with an ENVISION reader.
# CDK4/cyclin D1 = CDK4/cyclin D1 (Homo sapiens (Human), UniProt P11802); experiment: CDK4 Caliper Mobility Shift assay; type: biochemical
# Protocol: as §1, §2
# BALB/c mice = experiment: 5-FU-induced diarrhea mouse model; type: in vivo; details: 8 h before and 4 h after 5-FU (175 mg/kg), day 7
# Protocol: A compound was evaluated in a 5-FU-induced diarrhea mouse model for its protective effect on the cytotoxicity induced by the chemotherapy drug 5-FU. On day 0, BALB/c mice (20-25 g, 7-8 weeks of age) were randomly divided into 3 groups (vehicle, 5-FU, and compound treatment) with 10 mice in each group. In the vehicle group, the mice were administered orally with the same medium in the same amount as used in the treatment group for the compound and then injected with the same medium in the same amount as used in the 5-FU group. In the 5-FU group, the mice were administered orally with the same medium in the same amount as used in the treatment group for the compound and then injected with 5-FU (175 mg/kg). In the treatment group, the mice were administrated orally with the compound and then injected with 5-FU (175 mg/kg). The compound was formulated with a 0.5% CMC solution.
# On day 7, the diarrhea grade of each mouse was determined according to the method described in Kurita et al., Cancer Chemother. Pharmacol. 2000, 46, 211-20, the disclosure of which is incorporated herein by reference in its entirety. Diarrhea remission rates were calculated using the formula of Diarrhea remission rate (%)=(diarrhea grade in 5-FU group—diarrhea grade in treatment group)/diarrhea grade in 5-FU group×100%.
# CDK6/cyclin D1, sequence (Q00534 whole entry): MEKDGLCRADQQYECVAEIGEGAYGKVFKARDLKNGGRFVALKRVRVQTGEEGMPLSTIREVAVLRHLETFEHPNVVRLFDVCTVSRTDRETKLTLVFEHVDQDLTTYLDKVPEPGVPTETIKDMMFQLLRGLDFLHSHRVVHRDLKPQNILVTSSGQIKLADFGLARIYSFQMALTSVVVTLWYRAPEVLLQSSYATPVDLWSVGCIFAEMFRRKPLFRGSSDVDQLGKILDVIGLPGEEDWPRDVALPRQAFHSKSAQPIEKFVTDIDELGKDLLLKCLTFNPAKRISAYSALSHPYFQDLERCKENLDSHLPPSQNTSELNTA
# CDK6/cyclin D1, sequence (P24385 whole entry partner): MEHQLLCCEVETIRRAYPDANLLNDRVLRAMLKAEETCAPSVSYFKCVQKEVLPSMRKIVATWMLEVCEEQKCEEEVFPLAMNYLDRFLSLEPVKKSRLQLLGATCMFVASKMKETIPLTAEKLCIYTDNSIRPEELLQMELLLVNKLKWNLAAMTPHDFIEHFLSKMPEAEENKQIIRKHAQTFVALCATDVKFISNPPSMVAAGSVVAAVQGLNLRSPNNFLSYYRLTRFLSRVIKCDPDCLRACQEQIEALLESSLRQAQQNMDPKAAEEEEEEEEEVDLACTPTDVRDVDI
# CDK4/cyclin D1, sequence (P11802 whole entry): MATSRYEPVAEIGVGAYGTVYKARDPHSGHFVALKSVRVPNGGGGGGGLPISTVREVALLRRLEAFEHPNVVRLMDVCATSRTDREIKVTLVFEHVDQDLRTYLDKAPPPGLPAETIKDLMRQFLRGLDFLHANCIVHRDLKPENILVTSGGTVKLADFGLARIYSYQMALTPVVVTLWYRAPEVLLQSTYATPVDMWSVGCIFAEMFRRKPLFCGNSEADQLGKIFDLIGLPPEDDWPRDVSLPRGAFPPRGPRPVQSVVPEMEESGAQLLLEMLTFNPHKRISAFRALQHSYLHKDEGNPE
# CDK4/cyclin D1, sequence (P24385 whole entry partner): as the sequence (P24385 whole entry partner) above
IC50 (CDK6/cyclin D1),EC50 [1],IC50 (CDK4/cyclin D1),Structure (SMILES),also measured
≤ 200 nM,≤ 1000 nM,≤ 200 nM,"CC(=O)c1c(C)c2cnc(Nc3ccc(N4CCN(S(=O)(=O)NC(=O)CN)CC4)cn3)nc2n(C2CCCC2)c1=O [Compound A29, N-((4-(6-((6-Acetyl-8-cyclopentyl-5-methyl-7-oxo-7,8-dihydropyrido[2,3-d]-pyrimidin-2-yl)amino)pyridin-3-yl)piperazin-1-yl)sulfonyl)-2-aminoacetamide]","RPR (relative protection rate) ([2]; compound 1 μM, 5-Fu (10 μM)): 89%; RPR (relative protection rate) ([2]; compound 10 μM, 5-Fu (10 μM)): 78%"
≤ 200 nM,1000 to 10000 nM,≤ 200 nM,"COC(=O)NS(=O)(=O)N1CCN(c2ccc(Nc3ncc4c(C)c(C(C)=O)c(=O)n(C5CCCC5)c4n3)nc2)CC1 [Compound A26, Methyl ((4-(6-((6-acetyl-8-cyclopentyl-5-methyl-7-oxo-7,8-dihydropyrido[2,3-d]-pyrimidin-2-yl)amino)pyridin-3-yl)piperazin-1-yl)sulfonyl)carbamate]",
≤ 200 nM,> 10000 nM,≤ 200 nM,"CC(=O)NS(=O)(=O)N1CCN(c2ccc(Nc3ncc4c(C)c(C(C)=O)c(=O)n(C5CCCC5)c4n3)nc2)CC1 [Compound A34, N-((4-(6-((6-Acetyl-8-cyclopentyl-5-methyl-7-oxo-7,8-dihydropyrido[2,3-d]-pyrimidin-2-yl)amino)pyridin-3-yl)piperazin-1-yl)sulfonyl)acetamide]",
200 to 500 nM,1000 to 10000 nM,≤ 200 nM,"CC(=O)c1c(C)c2cnc(Nc3ccc(N4CCN(S(=O)(=O)NC(=O)C(C)C)CC4)cn3)nc2n(C2CCCC2)c1=O [Compound A36, N-((4-(6-((6-Acetyl-8-cyclopentyl-5-methyl-7-oxo-7,8-dihydropyrido[2,3-d]-pyrimidin-2-yl)amino)pyridin-3-yl)piperazin-1-yl)sulfonyl)isobutyramide]",
≤ 200 nM,1000 to 10000 nM,≤ 200 nM,"CC(=O)c1c(C)c2cnc(Nc3ccc(N4CCN(S(=O)(=O)NCC(=O)O)CC4)cn3)nc2n(C2CCCC2)c1=O [Compound A44, ((4-(6-((6-Acetyl-8-cyclopentyl-5-methyl-7-oxo-7,8-dihydropyrido[2,3-d]-pyrimidin-2-yl)amino)pyridin-3-yl)piperazin-1-yl)sulfonyl)glycine]","RPR (relative protection rate) ([2]; compound 5 μM, 5-Fu (10 μM)): 90%; RPR (relative protection rate) ([2]; compound 20 μM, 5-Fu (10 μM)): 65%"
≤ 200 nM,1000 to 10000 nM,≤ 200 nM,"CC(=O)c1c(C)c2cnc(Nc3ccc(N4CCN(S(=O)(=O)N[C@H](C(=O)O)C(C)C)CC4)cn3)nc2n(C2CCCC2)c1=O [Compound A45, ((4-(6-((6-Acetyl-8-cyclopentyl-5-methyl-7-oxo-7,8-dihydropyrido[2,3-d]-pyrimidin-2-yl)amino)pyridin-3-yl)piperazin-1-yl)sulfonyl)-L-valine]",

# The next lines start with the compound.
Structure (SMILES),IC50 (CDK6/cyclin D1),EC50 [1],IC50 (CDK4/cyclin D1),also measured
"CC(=O)c1c(C)c2cnc(Nc3ccc(N4CCN(S(=O)(=O)NC(=O)OCCNC(=O)[C@H](N)C(C)C)C[C@@H]4C)cn3)nc2n(C2CCCC2)c1=O [Compound A55, 2-((R)-2-Amino-3-methylbutanamido)ethyl (((S)-4-(6-((6-acetyl-8-cyclopentyl-5-methyl-7-oxo-7,8-dihydropyrido[2,3-d]pyrimidin-2-yl)amino)pyridin-3-yl)-3-methylpiperazin-1-yl)sulfonyl)carbamate]",≤ 200 nM,1000 to 10000 nM,≤ 200 nM,"RPR (relative protection rate) ([2]; compound 0.1 μM, 5-Fu (10 μM)): 38%; RPR (relative protection rate) ([2]; compound 10 μM, 5-Fu (10 μM)): 88%"
"CC(=O)c1c(C)c2cnc(Nc3ccc(N4CCN(S(=O)(=O)NC(=O)C5CCCO5)CC4)cn3)nc2n(C2CCCC2)c1=O (stereo not shown) [Compound A39, N-((4-(6-((6-Acetyl-8-cyclopentyl-5-methyl-7-oxo-7,8-dihydropyrido[2,3-d]-pyrimidin-2-yl)amino)pyridin-3-yl)piperazin-1-yl)sulfonyl)tetrahydrofuran-2-carboxamide]",200 to 500 nM,1000 to 10000 nM,≤ 200 nM,"RPR (relative protection rate) ([2]; compound 1 μM, Irinotecan (20 μM)): 79%; RPR (relative protection rate) ([2]; compound 10 μM, Irinotecan (20 μM)): 86%"
"CC(=O)c1c(C)c2cnc(Nc3ccc(N4CCN(S(=O)(=O)NC(=O)OCCNC(=O)[C@@H](N)C(C)C)CC4)cn3)nc2n(C2CCCC2)c1=O [Compound A14, (S)-2-(2-Amino-3-methylbutanamido)ethyl ((4-(6-((6-acetyl-8-cyclopentyl-5-methyl-7-oxo-7,8-dihydropyrido[2,3-d]pyrimidin-2-yl)amino)pyridin-3-yl)piperazin-1-yl)sulfonyl)carbamate]",≤ 200 nM,> 10000 nM,≤ 200 nM,
"CC(=O)c1c(C)c2cnc(Nc3ccc(N4CCN(S(=O)(=O)NC(=O)OC5CC5)CC4)cn3)nc2n(C2CCCC2)c1=O [Compound A24, Cyclopropyl ((4-(6-((6-acetyl-8-cyclopentyl-5-methyl-7-oxo-7,8-dihydropyrido[2,3-d]pyrimidin-2-yl)amino)pyridin-3-yl)piperazin-1-yl)sulfonyl)carbamate]",≤ 200 nM,1000 to 10000 nM,≤ 200 nM,
"CC(=O)c1c(C)c2cnc(Nc3ccc(N4CCN(S(=O)(=O)N5CC(CO)OC5=O)CC4)cn3)nc2n(C2CCCC2)c1=O (stereo not shown) [Compound A12, 3-((4-(6-((6-Acetyl-8-cyclopentyl-5-methyl-7-oxo-7,8-dihydropyrido[2,3-d]-pyrimidin-2-yl)amino)pyridin-3-yl)piperazin-1-yl)sulfonyl)-5-(hydroxymethyl)oxazolidin-2-one]",≤ 200 nM,1000 to 10000 nM,≤ 200 nM,Remission Rate (diarrhea remission rate) (BALB/c mice; 10 mg/kg oral): 50%; Remission Rate (diarrhea remission rate) (BALB/c mice; 25 mg/kg oral): 90%
"CC(=O)c1c(C)c2cnc(Nc3ccc(N4CCN(S(=O)(=O)N5CCCC[C@@H]5CO)CC4)cn3)nc2n(C2CCCC2)c1=O [Compound A7, (R)-6-acetyl-8-cyclopentyl-2-((5-(4-((2-(hydroxymethyl)piperidin-1-yl)sulfonyl)-piperazin-1-yl)pyridin-2-yl)amino)-5-methylpyrido[2,3-d]pyrimidin-7(8H)-one]",≤ 200 nM,1000 to 10000 nM,≤ 200 nM,
"CC(=O)c1c(C)c2cnc(Nc3ccc(N4CCN(S(=O)(=O)OCOC(=O)c5ccccc5)CC4)cn3)nc2n(C2CCCC2)c1=O [Compound B3, (((4-(6-((6-Acetyl-8-cyclopentyl-5-methyl-7-oxo-7,8-dihydropyrido[2,3-d]-pyrimidin-2-yl)amino)pyridin-3-yl)piperazin-1-yl)sulfonyl)oxy)methyl benzoate]",≤ 200 nM,1000 to 10000 nM,≤ 200 nM,
